The text below walks through data of patent publication US9943504B2, “Arginine methyltransferase inhibitors and uses thereof” (Epizyme, Inc., priority 2013, dated 2018).

In the assay the test system is mono-methyl arginine in RKO cells. The assay is described as follows: RKO Methylation Assay (In Cell Western). In kind it is cell-based. The settings on record: Homo sapiens, 72 hours, percent activation, read-out: RGG ICW EC30. The text has this:
RKO adherent cells were purchased from ATCC (American Type Culture Collection), Manassas, Va., USA. DMEM/Glutamax medium, penicillin-streptomycin, heat inactivated fetal bovine serum, 0.05% trypsin and D-PBS were purchased from Life Technologies, Grand Island, N.Y., USA. Odyssey blocking buffer, 800CW goat anti-rabbit IgG (H+L) antibody, and Licor Odyssey infrared scanner were purchased from Licor Biosciences, Lincoln, Nebr., USA. Mono-methyl arginine antibody was purchased from Cell Signaling Technology, Danvers, Mass., USA. Methanol was purchased from VWR, Franklin, Mass., USA. 10% Tween 20 was purchased from KPL, Inc., Gaithersburg, Md., USA. DRAQ5 was purchased from Biostatus Limited, Leicestershire, UK.
RKO adherent cells were maintained in growth medium (DMEM/Glutamax medium supplemented with 10% v/v heat inactivated fetal bovine serum and 100 units/mL penicillin-streptomycin) and cultured at 37° C. under 5% CO2.
Cell Treatment, in Cell Western (ICW) for Detection of Mono-Methyl Arginine and DNA Content.
RKO cells were seeded in assay medium at a concentration of 20,000 cells per mL to a poly-D-lysine coated 384 well culture plate (BD Biosciences 356697) with 50 μL per well. Compound (100 nL) from a 96-well source plate was added directly to 384 well cell plate. Plates were incubated at 37° C., 5% CO2 for 72 hours. After three days of incubation, plates were brought to room temperature outside of the incubator for ten minutes and blotted on paper towels to remove cell media. 50 μL of ice cold 100% methanol was added directly to each well and incubated for 30 min at room temperature. After 30 min, plates were transferred to a Biotek EL406 plate washer and washed 2 times with 100 μL per well of wash buffer (1×PBS). Next 60 μL per well of Odyssey blocking buffer (Odyssey Buffer with 0.1% Tween 20 (v/v)) were added to each plate and incubated 1 hour at room temperature. Blocking buffer was removed and 20 μL per well of primary antibody was added (mono-methyl arginine diluted 1:200 in Odyssey buffer with 0.1% Tween 20 (v/v)) and plates were incubated overnight (16 hours) at 4° C. Plates were washed 5 times with 100 μL per well of wash buffer. Next 20 μL per well of secondary antibody was added (1:200 800CW goat anti-rabbit IgG (H+L) antibody, 1:1000 DRAQ5 (Biostatus limited) in Odyssey buffer with 0.1% Tween 20 (v/v)) and incubated for 1 hour at room temperature. The plates were washed 5 times with 100 μL per well wash buffer then 2 times with 100 μL per well of water. Plates were allowed to dry at room temperature then imaged on the Licor Odyssey machine which measures integrated intensity at 700 nm and 800 nm wavelengths. Both 700 and 800 channels were scanned.
First, the ratio for each well was determined by:
Each plate included fourteen control wells of DMSO only treatment (minimum activation) as well as fourteen control wells for maximum activation treated with 20 μM of a reference compound. The average of the ratio values for each control type was calculated and used to determine the percent activation for each test well in the plate. Reference compound was serially diluted three-fold in DMSO for a total of nine test concentrations, beginning at 20 μM. Percent activation was determined and EC30 curves were generated using triplicate wells per concentration of compound.

Structures are written as SMILES. Bounds are passed on as bounds.

For orientation: EC30 means the point of the concentration-response curve where the effect stands at 30%.

On to `CN(CCN)Cc1n[nH]c2cccc(OCc3ccccc3)c12` [Compound 1], for which the concentration for an effect of 30% (EC30) is at most 3 µM.
